From the kinase profiling compilation of Christmann-Franck et al. (2016)

What was measured:
Experiment in all cases: Caliper, Mobility shift assay off-chip
BRSK2 (human) = BRSK2 (human) (UniProt Q8IWQ3)
RPS6KB1 (human) = RPS6KB1 (human) (UniProt P23443)
PRKD3 (human) = PRKD3 (human) (UniProt O94806)
DCLK2 (human) = DCLK2 (human) (UniProt Q8N568)
AKT1 (human) = AKT1 (human) (UniProt P31749)
AKT2 (human) = AKT2 (human) (UniProt P31751)
PRKCD (human) = PRKCD (human) (UniProt Q05655)
PRKCG (human) = PRKCG (human) (UniProt P05129)
IGF1R (human) = IGF1R (human) (UniProt P08069)
CHEK2 (human) = CHEK2 (human) (UniProt O96017)
INSR (human) = INSR (human) (UniProt P06213)
Chain of INSR (human) (P06213 whole entry, looked up): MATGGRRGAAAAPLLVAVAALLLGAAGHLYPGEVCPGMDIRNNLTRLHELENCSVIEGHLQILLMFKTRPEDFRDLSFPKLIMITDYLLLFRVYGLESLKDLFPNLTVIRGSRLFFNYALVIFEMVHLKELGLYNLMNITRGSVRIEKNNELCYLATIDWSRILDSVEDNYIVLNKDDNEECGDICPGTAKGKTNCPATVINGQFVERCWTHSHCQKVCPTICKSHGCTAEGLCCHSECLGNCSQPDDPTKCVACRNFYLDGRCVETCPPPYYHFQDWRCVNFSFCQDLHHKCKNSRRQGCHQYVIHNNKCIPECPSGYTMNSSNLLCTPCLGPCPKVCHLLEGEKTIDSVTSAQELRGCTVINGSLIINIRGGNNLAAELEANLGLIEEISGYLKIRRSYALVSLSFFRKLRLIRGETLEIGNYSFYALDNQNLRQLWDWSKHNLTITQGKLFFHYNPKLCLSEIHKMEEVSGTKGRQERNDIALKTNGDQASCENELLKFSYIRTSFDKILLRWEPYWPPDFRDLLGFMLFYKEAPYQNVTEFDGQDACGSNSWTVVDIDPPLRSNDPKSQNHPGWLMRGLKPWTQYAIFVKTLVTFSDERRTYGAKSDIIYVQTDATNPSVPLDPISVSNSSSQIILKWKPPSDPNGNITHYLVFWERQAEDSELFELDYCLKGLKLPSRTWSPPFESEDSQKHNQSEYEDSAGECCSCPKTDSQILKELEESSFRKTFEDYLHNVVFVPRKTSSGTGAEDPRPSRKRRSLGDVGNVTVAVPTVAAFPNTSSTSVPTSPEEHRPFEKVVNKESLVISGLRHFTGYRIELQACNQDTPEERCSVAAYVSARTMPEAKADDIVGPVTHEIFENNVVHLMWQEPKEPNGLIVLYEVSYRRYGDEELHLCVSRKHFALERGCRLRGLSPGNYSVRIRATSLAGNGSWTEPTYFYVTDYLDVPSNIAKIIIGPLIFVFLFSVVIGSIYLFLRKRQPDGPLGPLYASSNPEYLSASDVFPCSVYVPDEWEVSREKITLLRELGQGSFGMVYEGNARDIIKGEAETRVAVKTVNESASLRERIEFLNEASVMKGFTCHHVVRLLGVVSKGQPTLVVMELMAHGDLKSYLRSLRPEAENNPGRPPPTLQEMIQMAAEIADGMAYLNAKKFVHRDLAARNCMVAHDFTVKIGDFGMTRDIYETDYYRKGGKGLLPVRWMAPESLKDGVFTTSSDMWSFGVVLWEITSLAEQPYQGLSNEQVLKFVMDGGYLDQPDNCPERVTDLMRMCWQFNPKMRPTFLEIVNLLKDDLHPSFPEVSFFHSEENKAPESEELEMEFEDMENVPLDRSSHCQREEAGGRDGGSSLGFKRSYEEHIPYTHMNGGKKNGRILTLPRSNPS

FYN (human) = FYN (human) (UniProt P06241)
PAK2 (human) = PAK2 (human) (UniProt Q13177)
Chain of PAK2 (human) (Q13177 whole entry, looked up): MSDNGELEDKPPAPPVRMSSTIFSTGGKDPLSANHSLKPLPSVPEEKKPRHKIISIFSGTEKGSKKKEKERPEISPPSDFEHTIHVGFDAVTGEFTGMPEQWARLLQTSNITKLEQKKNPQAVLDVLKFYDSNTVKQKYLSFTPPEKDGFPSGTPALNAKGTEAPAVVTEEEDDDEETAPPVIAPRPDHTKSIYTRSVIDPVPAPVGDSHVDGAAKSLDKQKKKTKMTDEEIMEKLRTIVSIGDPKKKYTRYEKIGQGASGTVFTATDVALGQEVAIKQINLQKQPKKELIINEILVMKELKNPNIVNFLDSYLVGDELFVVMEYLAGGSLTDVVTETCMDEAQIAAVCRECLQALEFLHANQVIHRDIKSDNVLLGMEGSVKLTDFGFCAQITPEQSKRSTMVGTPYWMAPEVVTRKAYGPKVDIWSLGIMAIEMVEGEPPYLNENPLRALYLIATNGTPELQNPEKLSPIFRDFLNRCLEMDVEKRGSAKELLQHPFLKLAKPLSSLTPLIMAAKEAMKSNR

FGFR3 (human) = FGFR3 (human) (UniProt P22607)
Chain of FGFR3 (human) (P22607 whole entry, looked up): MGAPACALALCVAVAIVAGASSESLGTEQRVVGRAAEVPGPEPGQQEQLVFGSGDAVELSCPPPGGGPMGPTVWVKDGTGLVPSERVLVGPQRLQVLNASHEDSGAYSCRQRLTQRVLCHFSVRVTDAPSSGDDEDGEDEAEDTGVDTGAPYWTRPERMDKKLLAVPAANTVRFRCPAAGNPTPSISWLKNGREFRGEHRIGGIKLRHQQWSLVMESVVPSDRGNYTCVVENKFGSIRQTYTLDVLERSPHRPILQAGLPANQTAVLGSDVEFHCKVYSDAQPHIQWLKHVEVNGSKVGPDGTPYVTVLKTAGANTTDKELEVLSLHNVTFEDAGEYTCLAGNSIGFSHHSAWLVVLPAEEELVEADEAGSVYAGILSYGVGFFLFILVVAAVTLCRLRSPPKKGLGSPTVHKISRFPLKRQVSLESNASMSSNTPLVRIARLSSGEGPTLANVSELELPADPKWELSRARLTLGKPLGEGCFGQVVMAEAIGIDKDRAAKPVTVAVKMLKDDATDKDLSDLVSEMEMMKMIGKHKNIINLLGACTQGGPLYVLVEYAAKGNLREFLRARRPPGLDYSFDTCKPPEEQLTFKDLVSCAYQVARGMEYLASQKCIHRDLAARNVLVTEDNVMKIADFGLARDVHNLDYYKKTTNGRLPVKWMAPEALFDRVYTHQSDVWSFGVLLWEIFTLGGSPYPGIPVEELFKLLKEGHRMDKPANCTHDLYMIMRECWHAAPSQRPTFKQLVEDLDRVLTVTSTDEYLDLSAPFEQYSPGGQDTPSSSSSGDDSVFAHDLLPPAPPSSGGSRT

RPS6KA5 KD1 KD2 (human) = RPS6KA5 KD1 KD2 (human) (UniProt O75582)
PRKCB1 (human) = PRKCB1 (human) (UniProt P05771)
FLT3 (human) = FLT3 (human) (UniProt P36888)
[1] = test system: ABL1 (human), P00519 [Q252H]
PDGFRA (human) = PDGFRA (human) (UniProt P16234)
MAPK12 (human) = MAPK12 (human) (UniProt P53778)
Chain of MAPK12 (human) (P53778 whole entry, looked up): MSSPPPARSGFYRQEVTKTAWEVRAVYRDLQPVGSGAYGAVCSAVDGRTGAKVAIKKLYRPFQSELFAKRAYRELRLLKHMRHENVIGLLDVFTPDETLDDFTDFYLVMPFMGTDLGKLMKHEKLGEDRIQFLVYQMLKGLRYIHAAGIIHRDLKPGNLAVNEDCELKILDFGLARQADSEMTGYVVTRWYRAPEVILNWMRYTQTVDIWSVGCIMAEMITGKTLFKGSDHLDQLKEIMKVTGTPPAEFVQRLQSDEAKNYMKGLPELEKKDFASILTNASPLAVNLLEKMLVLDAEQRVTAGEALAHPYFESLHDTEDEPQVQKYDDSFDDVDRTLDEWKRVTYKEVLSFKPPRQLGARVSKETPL

[2] = test system: FGFR2 (human), P21802 [N549H]
CAMK2G (human) = CAMK2G (human) (UniProt Q13555)
BTK (human) = BTK (human) (UniProt Q06187)
SGK3 (human) = SGK3 (human) (UniProt Q96BR1)
AURKB (human) = AURKB (human) (UniProt Q96GD4)
MAPK1 (human) = MAPK1 (human) (UniProt P28482)
FER (human) = FER (human) (UniProt P16591)
SRC (human) = SRC (human) (UniProt P12931)
Chain of SRC (human) (P12931 whole entry, looked up): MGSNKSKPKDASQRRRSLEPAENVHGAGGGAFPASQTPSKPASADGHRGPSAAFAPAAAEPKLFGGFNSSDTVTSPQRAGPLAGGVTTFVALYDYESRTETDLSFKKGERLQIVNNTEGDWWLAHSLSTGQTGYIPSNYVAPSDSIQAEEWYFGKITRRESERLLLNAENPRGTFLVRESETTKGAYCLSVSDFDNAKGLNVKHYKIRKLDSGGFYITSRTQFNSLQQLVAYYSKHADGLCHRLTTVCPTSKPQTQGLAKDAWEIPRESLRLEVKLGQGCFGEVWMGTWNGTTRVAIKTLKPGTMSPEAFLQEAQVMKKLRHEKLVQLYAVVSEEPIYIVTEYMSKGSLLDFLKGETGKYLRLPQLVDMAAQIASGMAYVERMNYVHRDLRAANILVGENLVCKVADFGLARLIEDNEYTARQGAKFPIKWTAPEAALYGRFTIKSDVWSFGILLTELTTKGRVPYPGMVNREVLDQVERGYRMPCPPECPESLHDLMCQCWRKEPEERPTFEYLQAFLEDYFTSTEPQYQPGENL

FGFR2 (human) = FGFR2 (human) (UniProt P21802)
MAPKAPK3 (human) = MAPKAPK3 (human) (UniProt Q16644)
Chain of MAPKAPK3 (human) (Q16644 whole entry, looked up): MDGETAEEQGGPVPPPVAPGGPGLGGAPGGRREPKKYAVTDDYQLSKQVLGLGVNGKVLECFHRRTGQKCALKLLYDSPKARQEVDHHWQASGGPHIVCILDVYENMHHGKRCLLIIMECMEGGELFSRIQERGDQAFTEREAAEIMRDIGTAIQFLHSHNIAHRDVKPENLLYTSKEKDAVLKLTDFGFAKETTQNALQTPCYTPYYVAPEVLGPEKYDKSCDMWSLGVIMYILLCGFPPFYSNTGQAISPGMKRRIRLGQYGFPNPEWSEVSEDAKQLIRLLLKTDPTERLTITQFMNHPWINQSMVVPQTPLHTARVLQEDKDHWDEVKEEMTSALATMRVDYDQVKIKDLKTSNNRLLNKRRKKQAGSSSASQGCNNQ

CAMK4 (human) = CAMK4 (human) (UniProt Q16566)
RPS6KA3 KD1 KD2 (human) = RPS6KA3 KD1 KD2 (human) (UniProt P51812)
TSSK2 (human) = TSSK2 (human) (UniProt Q96PF2)
PIM1 (human) = PIM1 (human) (UniProt P11309)
Chain of PIM1 (human) (P11309 whole entry, looked up): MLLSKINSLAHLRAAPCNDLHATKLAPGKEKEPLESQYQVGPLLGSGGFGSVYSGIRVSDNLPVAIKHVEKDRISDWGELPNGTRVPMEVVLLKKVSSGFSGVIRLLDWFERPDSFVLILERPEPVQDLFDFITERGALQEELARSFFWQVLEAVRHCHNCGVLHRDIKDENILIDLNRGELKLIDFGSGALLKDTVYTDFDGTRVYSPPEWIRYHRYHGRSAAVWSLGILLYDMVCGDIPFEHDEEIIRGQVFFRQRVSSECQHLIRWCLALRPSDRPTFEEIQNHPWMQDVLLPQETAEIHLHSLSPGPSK

With `O=c1c2cc(CS(=O)(=O)NCc3ccccn3)ccc2ccc2ncc(C3CCNCC3)cc12` the inhibition (BRSK2 (human); compound 0.01 µM) was -1.9%, the inhibition (BRSK2 (human); compound 0.1 µM) was 4.8% and the inhibition (RPS6KB1 (human); compound 0.01 µM) was 6.8%. For the same compound, the inhibition (RPS6KB1 (human); compound 0.1 µM) was -1.3%, the inhibition (PRKD3 (human); compound 0.01 µM) was 3.2% and the inhibition (PRKD3 (human); compound 0.1 µM) was -5.2%. The inhibition (DCLK2 (human); compound 0.01 µM) was 8.7%, the inhibition (DCLK2 (human); compound 0.1 µM) was -0.7% and the inhibition (AKT1 (human); compound 0.01 µM) was 2.8%. It also gave an inhibition (AKT1 (human); compound 0.1 µM) of -1.1%, an inhibition (AKT2 (human); compound 0.01 µM) of -0.2% and an inhibition (AKT2 (human); compound 0.1 µM) of -1.6%. It also gave an inhibition (PRKCD (human); compound 0.01 µM) of 11%, an inhibition (PRKCD (human); compound 0.1 µM) of 2.4% and an inhibition (PRKCG (human); compound 0.01 µM) of -3.2%. It also gave an inhibition (PRKCG (human); compound 0.1 µM) of 1.8%, an inhibition (IGF1R (human); compound 0.01 µM) of 5% and an inhibition (IGF1R (human); compound 0.1 µM) of -2.7%. For the same compound, the inhibition (CHEK2 (human); compound 0.01 µM) was -5.2%, the inhibition (CHEK2 (human); compound 0.1 µM) was -5.1% and the inhibition (INSR (human); compound 0.01 µM) was -1.4%. For the same compound, the inhibition (INSR (human); compound 0.1 µM) was -2.5%, the inhibition (FYN (human); compound 0.01 µM) was -0.4% and the inhibition (FYN (human); compound 0.1 µM) was -7.3%. The inhibition (PAK2 (human); compound 0.01 µM) was 0.1%, the inhibition (PAK2 (human); compound 0.1 µM) was 3.6% and the inhibition (FGFR3 (human); compound 0.01 µM) was -38.6%. The inhibition (FGFR3 (human); compound 0.1 µM) was -12.3%, the inhibition (RPS6KA5 KD1 KD2 (human); compound 0.01 µM) was -5.1% and the inhibition (RPS6KA5 KD1 KD2 (human); compound 0.1 µM) was -2.9%. It also gave an inhibition (PRKCB1 (human); compound 0.01 µM) of 4.1%, an inhibition (PRKCB1 (human); compound 0.1 µM) of 6.7% and an inhibition (FLT3 (human); compound 0.01 µM) of 0.2%. For the same compound, the inhibition (FLT3 (human); compound 0.1 µM) was 5%, the inhibition ([1]; compound 0.01 µM) was 3.6% and the inhibition ([1]; compound 0.1 µM) was 26.3%. It also gave an inhibition (PDGFRA (human); compound 0.01 µM) of -15.7%, an inhibition (PDGFRA (human); compound 0.1 µM) of 4.1% and an inhibition (MAPK12 (human); compound 0.01 µM) of -3.3%. It also gave an inhibition (MAPK12 (human); compound 0.1 µM) of -4.6%, an inhibition ([2]; compound 0.01 µM) of -4.6% and an inhibition ([2]; compound 0.1 µM) of 3.3%. For the same compound, the inhibition (CAMK2G (human); compound 0.01 µM) was 6.3%, the inhibition (CAMK2G (human); compound 0.1 µM) was 2.1% and the inhibition (BTK (human); compound 0.01 µM) was 5.6%. It also gave an inhibition (BTK (human); compound 0.1 µM) of 5.1%, an inhibition (SGK3 (human); compound 0.01 µM) of -13.2% and an inhibition (SGK3 (human); compound 0.1 µM) of -7.3%. The inhibition (AURKB (human); compound 0.01 µM) was 3.2%, the inhibition (AURKB (human); compound 0.1 µM) was 17% and the inhibition (MAPK1 (human); compound 0.01 µM) was -2.5%. For the same compound, the inhibition (MAPK1 (human); compound 0.1 µM) was -0.1%, the inhibition (FER (human); compound 0.01 µM) was -6.3% and the inhibition (FER (human); compound 0.1 µM) was 0.8%. The inhibition (SRC (human); compound 0.01 µM) was -3.8%, the inhibition (SRC (human); compound 0.1 µM) was -4.2% and the inhibition (FGFR2 (human); compound 0.01 µM) was -8.2%. The inhibition (FGFR2 (human); compound 0.1 µM) was 8.7%, the inhibition (MAPKAPK3 (human); compound 0.01 µM) was -0.3% and the inhibition (MAPKAPK3 (human); compound 0.1 µM) was -0.3%. It also gave an inhibition (CAMK4 (human); compound 0.01 µM) of 2.8%, an inhibition (CAMK4 (human); compound 0.1 µM) of -12.8% and an inhibition (RPS6KA3 KD1 KD2 (human); compound 0.01 µM) of -1.1%. The inhibition (RPS6KA3 KD1 KD2 (human); compound 0.1 µM) was 8.1%, the inhibition (TSSK2 (human); compound 0.01 µM) was 55.4% and the inhibition (TSSK2 (human); compound 0.1 µM) was -6.2%. The inhibition (PIM1 (human); compound 0.01 µM) was -4.8% and the inhibition (PIM1 (human); compound 0.1 µM) was -6.2%.
For `CN(c1ccc2ccc3ncc(-c4cnn(C)c4)cc3c(=O)c2c1)S(=O)(=O)NCc1ccccn1`, the inhibition (BRSK2 (human); compound 0.1 µM) was -0.7%, the inhibition (BRSK2 (human); compound 1.0 µM) was 6.6% and the inhibition (RPS6KB1 (human); compound 0.1 µM) was -1%. The inhibition (RPS6KB1 (human); compound 1.0 µM) was -6.2%, the inhibition (PRKD3 (human); compound 0.1 µM) was 8% and the inhibition (PRKD3 (human); compound 1.0 µM) was 9.4%. It also gave an inhibition (DCLK2 (human); compound 0.1 µM) of 8.6%, an inhibition (DCLK2 (human); compound 1.0 µM) of 4.1% and an inhibition (AKT1 (human); compound 0.1 µM) of -4.1%. It also gave an inhibition (AKT1 (human); compound 1.0 µM) of 6.2%, an inhibition (AKT2 (human); compound 0.1 µM) of -4.1% and an inhibition (AKT2 (human); compound 1.0 µM) of -15.8%. The inhibition (PRKCD (human); compound 0.1 µM) was -0.8%, the inhibition (PRKCD (human); compound 1.0 µM) was 2.2% and the inhibition (PRKCG (human); compound 0.1 µM) was -8.6%. It also gave an inhibition (PRKCG (human); compound 1.0 µM) of -6.9%, an inhibition (IGF1R (human); compound 0.1 µM) of -12.2% and an inhibition (IGF1R (human); compound 1.0 µM) of -0.8%. The inhibition (CHEK2 (human); compound 0.1 µM) was -1.5%, the inhibition (CHEK2 (human); compound 1.0 µM) was 6.9% and the inhibition (INSR (human); compound 0.1 µM) was 3.4%. It also gave an inhibition (INSR (human); compound 1.0 µM) of -0.3%, an inhibition (FYN (human); compound 0.1 µM) of -0.3% and an inhibition (PAK2 (human); compound 0.1 µM) of 10.2%. For the same compound, the inhibition (PAK2 (human); compound 1.0 µM) was 5.3%, the inhibition (FGFR3 (human); compound 0.1 µM) was 26.3% and the inhibition (FGFR3 (human); compound 1.0 µM) was 81%. For the same compound, the inhibition (RPS6KA5 KD1 KD2 (human); compound 0.1 µM) was -3.5%, the inhibition (RPS6KA5 KD1 KD2 (human); compound 1.0 µM) was 8.1% and the inhibition (PRKCB1 (human); compound 0.1 µM) was -7.7%. It also gave an inhibition (PRKCB1 (human); compound 1.0 µM) of 8.8%, an inhibition (FLT3 (human); compound 0.1 µM) of 13.7% and an inhibition (FLT3 (human); compound 1.0 µM) of 62.9%. For the same compound, the inhibition ([1]; compound 0.1 µM) was 6.9%, the inhibition ([1]; compound 1.0 µM) was 51.8% and the inhibition (PDGFRA (human); compound 0.1 µM) was -13.5%. For the same compound, the inhibition (PDGFRA (human); compound 1.0 µM) was 31.2%, the inhibition (MAPK12 (human); compound 0.1 µM) was -6% and the inhibition (MAPK12 (human); compound 1.0 µM) was 0.4%. For the same compound, the inhibition ([2]; compound 0.1 µM) was 16%, the inhibition ([2]; compound 1.0 µM) was 57.6% and the inhibition (CAMK2G (human); compound 1.0 µM) was 0.4%. The inhibition (BTK (human); compound 0.1 µM) was 4.7%, the inhibition (BTK (human); compound 1.0 µM) was 4.9% and the inhibition (SGK3 (human); compound 0.1 µM) was -5.3%. It also gave an inhibition (SGK3 (human); compound 1.0 µM) of 1.1%, an inhibition (AURKB (human); compound 0.1 µM) of 37.1% and an inhibition (AURKB (human); compound 1.0 µM) of 80.7%. For the same compound, the inhibition (MAPK1 (human); compound 0.1 µM) was -4%, the inhibition (MAPK1 (human); compound 1.0 µM) was 1.8% and the inhibition (FER (human); compound 0.1 µM) was 24.1%. The inhibition (FER (human); compound 1.0 µM) was -2.5%, the inhibition (SRC (human); compound 0.1 µM) was -3.2% and the inhibition (SRC (human); compound 1.0 µM) was 14.2%. For the same compound, the inhibition (FGFR2 (human); compound 0.1 µM) was 29.4%, the inhibition (FGFR2 (human); compound 1.0 µM) was 76.6% and the inhibition (MAPKAPK3 (human); compound 0.1 µM) was -0.1%. The inhibition (MAPKAPK3 (human); compound 1.0 µM) was -2.3%, the inhibition (CAMK4 (human); compound 0.1 µM) was -0.2% and the inhibition (CAMK4 (human); compound 1.0 µM) was 8%. It also gave an inhibition (RPS6KA3 KD1 KD2 (human); compound 0.1 µM) of -1.9%, an inhibition (RPS6KA3 KD1 KD2 (human); compound 1.0 µM) of 12.9% and an inhibition (TSSK2 (human); compound 0.1 µM) of -3.3%. The inhibition (TSSK2 (human); compound 1.0 µM) was -0.8%, the inhibition (PIM1 (human); compound 0.1 µM) was -2.7% and the inhibition (PIM1 (human); compound 1.0 µM) was 2.1%.
